Legend:
[1] = target: T1, Casein Kinase Iε (Homo sapiens, UniProt P49674); assay: Casein Kinase Epsilon 33P-ATP Filter Plate Assay; assay type: biochemical
T1 construct: made in house
Description: Casein Kinase Epsilon ^33P-ATP Filter Plate Assay for Screening CKIε Inhibitors
Purpose: This assay measures the ability of compounds to inhibit the phosphorylation of the substrate casein by the enzyme casein kinase 1ε using an in vitro ^33P-ATP filtration assay. […] Materials:
Equipment: • Beckman Biomek 2000 Liquid Handling Robot • Beckman Multimek 96 Automated 96 Channel Pipettor • Millipore Vacuum Manifold Basic Kit # MAVM0960R • Titertek Multidrop Liquid Dispenser • Packard TopCount NXT Liquid Scintillation Counter
Enzyme: • Casein Kinase 1ε final concentration 0.58 mg/ml obtained from fermentation and purification processes as are well known to one skilled in the art. The above are stored as 100 μL aliquots at minus 80° C.
Compounds: • Supply compounds for testing as frozen 10 mM compound stock dissolved in 100% DMSO. Assay Conditions:
Final total assay volume per well is equal to 50 μL that one prepares as follows: • 5 μL of diluted compound stock (10, 1, 0.1, 0.01 or 0.001 μM), • 5 μL of dephosphorylated casein final concentration 0.2 μg/μL, • 20 μL of CK1ε final concentration 3 ng/μL, and • 20 μL of γ-^33P-ATP final concentration 0.02 μCi/μL mixed with cold ATP (10 μM final). Methodology: • 1. Prepare 500 mL of fresh assay buffer: 50 mM Tris pH 7.5, 10 mM MgCl2, 2 mM DTT and 1 mM EGTA • 2. Obtain compounds to be evaluated as 10 μL of 10 mM stock dissolved in 100% DMSO. Use a Biomek 2000 liquid handling robot, make serial dilutions to yield 10, 1, 0.1, 0.01 and 0.001 μM final compound dilutions added as 5 μL additions to Falcon U bottom plates. […] A routine screening assay will consist of 32 compounds, which equals 4 assay plates. • 3. Assay plate maps are set up according to the following pattern CK1ePlateMap.xls
• 4. Add 5 μL of compound as indicated, then add 5 μL of dephosphorylated casein (dissolved in distilled H20)(0.2 μg/μL) and 20 μL CK1ε (3 ng/μL) to the appropriate wells. • 5. Finally add 20 μL γ-^33P-ATP (0.02 μCi/μL)/10 μM cold ATP (equals approximately 2×10^6 CPM per well). • 6. Vortes the Falcon U-Bottom assay plate containing the above 50 μL reaction volume and then incubate at room temperature for 2 hours. • 7. At the end of 2 hours, stop the reaction by the addition of 65 μL of ice cold 2 mM cold ATP (made up in assay buffer) to the assay plates using a Beckman Multimek. • 8. At the same time add 25 μL 100% ice cold TCA made up in distilled H20 to a matching number of Millipore MAPH filter plates. • 9. Using a handheld 8-channel pipettor, transfer 100 μL of the reaction mixture from the Falcon U-Bottom Plate to the Millipore MAPH filter plates presoaked with TCA. • 10. Mix the Millipore MAPH filter plates gently and allow to sit at room temperature for at least 30 minutes to precipitate the proteins. • 11. After 30 minutes, place the filter plates on a Millipore vacuum manifold and filter at no more than 8 mm Hg as the MAPH filters tend to “air lock” at higher vacuum settings. • 12. Wash the filter plates sequentially and filter with 2×150 μL 20% TCA, 2×150 μL 10% TCA and 2×150 μL 5% TCA (total of 6 washes per plate/900 μL per well). • 13. Allow the plates to dry overnight at room temperature. The next day add 40 μL Packard Microscint-20 Scintillation Fluid per well using a Titertek Multidrop dispenser; seal the plates and count for 2 minutes/well in a Packard Topcount NXT Scintillation Counter (to provide CPM values/well). Calculation: • 1. Import Counts Per Minute (CPM) data into a proprietary data calculation and archiving database (Activity Base by IDBS version 5.0). • 2. Column 1 for each plate reflects total phosphorylation activity of the enzyme in the absence of any inhibiting compound and thus represents 100%. Column 12 reflects any nonspecific phosphorylation/retained radioactivity activity in the absence of inhibiting compound and enzyme.

[2] = tested on: Mper1-luc Rat-1 fibroblasts (P2C4); assay: Cellular Circadian Assay (Mper1-luc reporter period lengthening); assay type: cell-based; details: effective concentration that induces a 1 hour lengthening of circadian period
Description: The assay consists of Rat-1 fibroblasts stably expressing a Mper1-luc construct, thus enabling the determination of the rhythmic activation of the Mper1 promoter in living cells by repeatedly estimating luciferase activity by monitoring light-output over several days. The repeated measure format of the assay permits accurate and reproducible assessment of the concentration-dependent effects of CKIε inhibitors on circadian rhythm and provides the nexus for relating CKIε inhibition to circadian period alteration.
Cellular Circadian Assay Experimental Procedures
Stable transfection: Co-transfect Rat-1 fibroblast cultures at 30-50% confluence with vectors containing the Zeocin resistance selectable marker for stable transfection and an mPer-1 promoter-driven luciferase reporter gene. After 24-48 hours, split the cultures onto 96 well plates and maintain in growth media supplemented with 50-100 μg/mL Zeocin (Invitrogen #45-0430) for 10-14 days. Assess Zeocin-resistant stable transfectants for reporter expression by supplementing growth media with 100 μM luciferin (Promega #E1603) and assaying luciferase activity on a TopCount scintillation counter (Packard Model #C384V00). […] Select Mper1-luc Rat-1 fibroblasts clone P2C4 for compound testing. […] After synchronization, rinse cultures with 100 μL EMEM (Cellgro #10-010-CV) for 10 minutes at room temperature. […] Add compounds to be tested for circadian effects to CO2-independent media in 0.3% DMSO (final concentration). […] Estimate in vivo luciferase activity by measuring relative light output on a TopCount scintillation counter (Packard Model #C384V00). Transfer plates from incubator to reader using an ORCA robotic arm (Beckman Instruments) and SAMI-NT automated scheduling software (Version 3.3; SAGIAN/Beckman Instruments). Data Analysis: Use Microsoft Excel and XLfit (Version 2.0.9; IDBS) to import, manipulate and graph data. Perform period analysis either by determining the interval between relative light output minima over several days or by Fourier Transform. […] Analyze the data by fitting a hyperbolic curve to the data expressed as period change (y-axis) versus the concentration of test compound (x-axis) in XLfit and interpolate the EC[…]t+1h from this curve.

T1 sequence (P49674 whole entry): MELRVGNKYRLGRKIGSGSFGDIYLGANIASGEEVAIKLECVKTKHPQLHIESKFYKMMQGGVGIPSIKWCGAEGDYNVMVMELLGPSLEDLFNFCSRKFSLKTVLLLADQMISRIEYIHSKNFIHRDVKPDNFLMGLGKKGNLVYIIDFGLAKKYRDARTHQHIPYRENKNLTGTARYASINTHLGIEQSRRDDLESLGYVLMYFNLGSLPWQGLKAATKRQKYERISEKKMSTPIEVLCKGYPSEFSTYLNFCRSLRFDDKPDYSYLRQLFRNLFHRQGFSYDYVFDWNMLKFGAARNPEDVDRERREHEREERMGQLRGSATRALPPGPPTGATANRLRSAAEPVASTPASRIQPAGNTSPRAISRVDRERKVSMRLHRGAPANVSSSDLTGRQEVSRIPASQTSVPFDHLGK

| Structure (SMILES) | Ki [1] [nM] | Cell Assay ECΔτ1h [2] [µM] |
| --- | --- | --- |
| NC(=O)c1[nH]c2sccc2c1Sc1ccccc1 [IIb, 4-(phenylsulfanyl)-6H-thieno[2,3-b]pyrrole-5-carboxylic acid amide] | 811 | 0.874 |
| NC(=O)c1[nH]c2sccc2c1Sc1cccc(Br)c1 [IIg, 4-(3-Bromophenyl-sulfanyl)-6H-thieno[2,3-b]pyrrole-5-carboxylic acid amide] | 30.6 | 2.492 |
| Cc1nc2c(Sc3cccc(F)c3)c(C(N)=O)[nH]c2s1 [IIn, 6-(3-Fluorophenyl-sulfanyl)-2-methyl-4H-pyrrolo[3,2-d]thiazole-5-carboxylic acid amide] | 15.9 | 0.998 |
| Cc1nc2c(Sc3cccc(Cl)c3)c(C(N)=O)[nH]c2s1 [IIo, 6-(3-Chlorophenyl-sulfanyl)-2-methyl-4H-pyrrolo[3,2-d]thiazole-5-carboxylic acid amide] | 9.6 | 0.662 |
| NC(=O)c1[nH]c2scnc2c1Sc1ccccc1 [IIs, 6-Phenylsulfanyl-4H-pyrrolo[3,2-d]thiazole-5-carboxylic acid amide] | 47 | 1.155 |
| COc1cccc(Sc2c(C(N)=O)[nH]c3scnc23)c1 [IIt, 6-(3-Methoxyphenyl-sulfanyl)-4H-pyrrolo[3,2-d]thiazole-5-carboxylic acid amide] | 22 | 1.974 |
| NC(=O)c1[nH]c2ccsc2c1Sc1ccccc1N [Id, 6-(2-Aminophenyl-sulfanyl)-4H-thieno[3,2-b]pyrrole-5-carboxylic acid amide] | 110 | >30 |

From US7652046B2, “Substituted thienopyrrole carboxylic acid amides, pyrrolothiazole carboxylic acid amides, and related analogs as inhibitors of casein kinase I” (Aventis Pharmaceuticals Inc., priority 2004, dated 2010)
